Source: patent US20130217702A1 (Richter Gedeon Nyrt., priority 2010, published 2013)

How the values were obtained:
[1] = target: T1, recombinant human B1 receptors (Homo sapiens, UniProt P46663); experiment: Functional assay: antagonist potency by cytosolic calcium measurement (plate reader fluorimeter) in CHO-B1 cells, agonist LysDABK; type: cell-based; details: CHO-B1 cells, inhibition of LysDABK (EC80)-evoked [Ca2+]i elevation; read-out: B1 func.
T1 construct: host or cells: CHO (CHO-B1)
T1 sequence (P46663 1-353): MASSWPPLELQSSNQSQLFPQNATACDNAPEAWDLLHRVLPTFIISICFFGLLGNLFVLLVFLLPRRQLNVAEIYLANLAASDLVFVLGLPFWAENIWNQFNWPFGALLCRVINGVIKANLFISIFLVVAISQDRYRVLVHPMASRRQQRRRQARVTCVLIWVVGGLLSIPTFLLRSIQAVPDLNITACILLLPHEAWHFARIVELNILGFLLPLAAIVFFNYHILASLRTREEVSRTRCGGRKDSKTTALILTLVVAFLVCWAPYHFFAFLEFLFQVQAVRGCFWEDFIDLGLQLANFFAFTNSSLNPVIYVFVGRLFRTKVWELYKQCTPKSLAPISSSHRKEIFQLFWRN
Procedure: Assessment of Antagonist Potency at B1 Receptors In Vitro by Measurement of Cytosolic Calcium Ion Concentration with a Plate Reader Fluorimeter in Cells Expressing Recombinant Human B1 Receptors
Chinese hamster ovary (CHO) cells stably expressing recombinant human B1 (CHO-B1, Euroscreen) receptors were cultured in Dulbecco's Modified Eagle's Medium (DMEM) containing 10% Fetal Calf Serum (FCS), 100 U/ml penicillin, 0.1 mg/ml streptomycin, 0.25 μg/ml amphotericin B, 1% Minimum Essential Medium Eagle (MEM), non essential amino acid solution, 600 μg/ml G418. Cells were kept at 37° C. in a humidified incubator in an atmosphere of 5% CO2/95% air and were passaged 1:4 three times a week. Cells were plated at 1.5−2.5×10^4 cell/well on standard 96-well microplates, measurements of cytosolic calcium ion concentration ([Ca^2+]i) were carried out 1-2 days after cell plating.
Measurements of [Ca^2+]i were carried out on CHO-B1 cells stably expressing human B1 receptors, respectively. Cells were grown in standard 96-well microplates and before the measurement were loaded with a fluorescent Ca^2+-sensitive dye, fluo-4/AM (2 μM): after removing the culture medium the dye was added to the cells (dissolved in assay buffer: 145 mM NaCl, 5 mM KCl, 2 mM MgCl2, 2 mM CaCl2, 10 mM HEPES, 20 mM D-glucose, 2 mM probenecid, 100 μl/well) and cells were incubated at 37° C. in a humidified incubator in an atmosphere of 5% CO2/95% air for 40-120 min. To stop dye loading cells were washed twice with assay buffer. After washing, various concentrations of the test compounds (diluted in extracellular medium from a DMSO stock solution, final DMSO concentration was <0.1%) or buffer were added to each well depending on the experimental setup. After incubation at 37° C. for 20-25 min. baseline and agonist-evoked changes of [Ca^2+]; were measured column by column with a plate reader fluorimeter (Fluoroskan Ascent, Labsystems). Excitation and detection of emission was carried out from the bottom of the plate. Filters used for Fluo-4: excitation filter 485 nm, emission filter 538 nm. The whole measurement process was performed at 37° C. and was controlled by custom software. Inhibitory potency of the test compounds was assessed by measuring the reduction in the agonist-evoked [Ca^2+]i-elevation in the presence of different concentrations of the compounds. The agonist was LysDABK for CHO-B1 cells. Agonist was applied at an EC80 concentration; the EC80-values were derived from daily determined dose-response curves. Fluorescence data were expressed as ΔF/F (fluorescence change normalized to baseline). All treatments on a single plate were measured in multiple wells. Data from all wells with the same treatment were averaged and the average values were used for analysis. Inhibitory potency of a compound at a single concentration point was expressed as percent inhibition of the control agonist response. Sigmoidal concentration-inhibition curves were fitted to the data (derived from at least three independent experiments) and IC50-values were determined as the concentration that produces half of the maximal inhibition caused by the compound.

[2] = target: T2, human recombinant bradykinin B1 receptor (Homo sapiens, UniProt P46663); experiment: Human recombinant bradykinin B1 receptor competitive radioligand binding; details: hB1 expressed in CHO cells, [3H]-[Des-Arg10] Kallidin radioligand; read-out: B1 binding
T2 construct: host or cells: CHO cells, clone hB1-A5
T2 sequence (P46663 1-353): T1 sequence (P46663 1-353)
Procedure: Assessment of Ligand Binding Affinity to B1 and B2 Receptors In Vitro by Competitive Radioligand Binding Assay
Binding assays were carried out on human recombinant bradykinin) receptors (expressed in CHO cells, hB1-A5) according to the Euroscreen Technical Data Sheet (Cat.No.:ES-091). 20 μg protein/tube was incubated with [3,4-prolyl-3,4-^3H(N)]-[Des-Arg^10] Kallidin as radioligand. Non specific binding was determined in the presence of 10 μM Lys-des-Arg^9-Bradykinin. The final incubation volume was 250 μl. Samples were incubated for 15 min. at 25° C. then were rapidly vacuum filtered through GF/B filters presoaked for at least 1 h in 0.5% PEI. Radioactivity was determined by liquid scintillation spectroscopy.
The ligand displacement by the compounds was determined using a minimum of seven concentrations in triplicate, and experiments were repeated at least two times. The specific radioligand binding is defined as the difference between total binding and the non-specific binding determined in the presence of an excess of unlabelled ligand. Results are expressed as a percent inhibition of specific binding obtained in the presence of RGH-478 or reference drugs. IC50 values (i.e. concentration of compound giving 50% inhibition of specific binding) were calculated from concentration-displacement curves by sigmoidal fitting using GraphPad Prism Software 4.0. Ki values (i.e. inhibition constants) were calculated using the Cheng-Prusoff equation. KD was determined from the Scatchard plot. (Editor-in-chief: Enna, S. J. and Williams, M. Current protocols in pharmacology vol. 1. John Wiley & sons Inc., 1998)

## COc1cc(C(=O)NC2(C(=O)NCc3ccc(-n4c(-c5nnn(C)n5)c(Cl)c5cc(F)ccc54)cc3)CC2)on1 [Example 13, 3-Methoxy-isoxazole-5-carboxylic acid (1-{4-[3-chloro-5-fluoro-2-(2-methyl-2H-tetrazol-5-yl)-indol-1-yl]-benzylcarbamoyl}-cyclopropyl)-amide]
[1]
  IC50: < 20 nM
[2]
  Ki: < 20 nM

## Cc1nc(-c2c(Cl)c3ccccc3n2-c2ccc(CNC(=O)C3(NC(=O)c4cccc(=O)[nH]4)CC3)cc2)no1 [Example 162, 6-Oxo-1,6-dihydro-pyridine-2-carboxylic acid (1-{4-[3-chloro-2-(5-methyl-[1,2,4]oxadiazol-3-yl)-indol-1-yl]-benzylcarbamoyl}-cyclopropyl)-amide]
[1]
  IC50: < 20 nM
[2]
  Ki: < 20 nM

## COc1cc(C(=O)NC2(C(=O)NCc3ccc(-n4c(-c5nc(C)no5)cc5cc(F)ccc54)cc3)CC2)on1 [Example 103, 3-Methoxy-isoxazole-5-carboxylic acid (1-{4-[5-fluoro-2-(3-methyl-[1,2,4]oxadiazol-5-yl)-indol-1-yl]-benzylcarbamoyl}-cyclopropyl)-amide]
[1]
  IC50: < 20 nM
[2]
  Ki: < 20 nM

## Cc1cnc(C(=O)NC2(C(=O)NCc3ccc(-n4c(-c5noc(C)n5)c(Cl)c5ccccc54)cc3F)CC2)cn1 [Example 106, 5-Methyl-pyrazine-2-carboxylic acid (1-{4-[3-chloro-2-(5-methyl-[1,2,4]oxadiazol-3-yl)-indol-1-yl]-2-fluoro-benzylcarbamoyl}-cyclopropyl)-amide]
[1]
  IC50: < 20 nM
[2]
  Ki: < 20 nM

## Cc1noc(-c2c(Cl)c3ccccc3n2-c2ccc(CNC(=O)C3(NC(=O)CC(F)(F)F)CC3)cc2)n1 [Example 112, 1-(3,3,3-Trifluoro-propionylamino)-cyclopropanecarboxylic acid 4-[3-chloro-2-(3-methyl-[1,2,4]oxadiazol-5-yl)-indol-1-yl]-benzylamide]
[1]
  IC50: < 20 nM
[2]
  Ki: < 20 nM

## Cc1nc(-c2c(Cl)c3ccccc3n2-c2ccc(CNC(=O)C3(NC(=O)c4ccc(C(F)(F)F)c(F)c4)CC3)cc2)no1 [Example 93, N-(1-{4-[3-Chloro-2-(5-methyl-[1,2,4]oxadiazol-3-yl)-indol-1-yl]-benzylcarbamoyl}-cyclopropyl)-3-fluoro-4-trifluoromethyl-benzamide]
[1]
  IC50: 20 to 100 nM
[2]
  Ki: 20 to 100 nM

## CCOC(=O)c1c(Cl)c2ccccc2n1-c1ccc(CNC(=O)C2(NC(=O)c3cc(OC)no3)CC2)cc1 [Example 34, 3-Chloro-1-{4-[({1-[(3-methoxy-isoxazole-5-carbonyl)-amino]-cyclopropane-carbonyl}-amino)-methyl]-phenyl}-1H-indole-2-carboxylic acid ethyl ester]
[1]
  IC50: 20 to 100 nM
[2]
  Ki: < 20 nM

## COc1cc(C(=O)NC2(C(=O)NCc3ccc(-n4c(-c5noc(C)n5)c(Cl)c5cc(F)ccc54)cc3F)CC2)on1 [Example 197, 3-Methoxy-isoxazole-5-carboxylic acid (1-{4-[3-chloro-5-fluoro-2-(5-methyl-[1,2,4]oxadiazol-3-yl)-indol-1-yl]-2-fluoro-benzylcarbamoyl}-cyclopropyl)-amide]
[1]
  IC50: < 20 nM
[2]
  Ki: < 20 nM

## COc1cc(C(=O)NC2(C(=O)NCc3ccc(-n4c(-c5noc(C)n5)c(Cl)c5cc(F)ccc54)cc3)CC2)on1 [Example 67, 3-Methoxy-isoxazole-5-carboxylic acid (1-{4-[3-chloro-5-fluoro-2-(5-methyl-[1,2,4]oxadiazol-3-yl)-indol-1-yl]-benzylcarbamoyl}-cyclopropyl)-amide]
[1]
  IC50: < 20 nM
[2]
  Ki: < 20 nM

## COc1cc(C(=O)NC2(C(=O)NCc3ccc(-n4c(-c5ncc(C)o5)c(Cl)c5ccccc54)cc3)CC2)on1 [Example 38, 3-Methoxy-isoxazole-5-carboxylic acid (1-{4-[3-chloro-2-(5-methyl-oxazol-2-yl)-indol-1-yl]-benzylcarbamoyl}-cyclopropyl)-amide]
[1]
  IC50: 20 to 100 nM
[2]
  Ki: < 20 nM

## N#Cc1cc2cc(F)ccc2n1-c1ccc(CNC(=O)C2(NC(=O)c3cncc(C(F)(F)F)c3)CC2)cc1 [Example 45, N-{1-[4-(2-Cyano-5-fluoro-indol-1-yl)-benzylcarbamoyl]-cyclopropyl}-5-trifluoromethyl-nicotinamide]
[1]
  IC50: < 20 nM
[2]
  Ki: < 20 nM

## Cn1nnnc1-c1c(Cl)c2ccccc2n1-c1ccc(CNC(=O)C2(NC(=O)C(F)(F)F)CC2)cc1 [Example 8, 1-(2,2,2-Trifluoro-acetylamino)-cyclopropanecarboxylic acid 4-[3-chloro-2-(1-methyl-1H-tetrazol-5-yl)-indol-1-yl]-benzylamide]
[1]
  IC50: < 20 nM
[2]
  Ki: < 20 nM

## CSc1ccc(C(=O)NC2(C(=O)NCc3ccc(-n4c(-c5noc(C)n5)c(Cl)c5ccccc54)cc3)CC2)s1 [Example 173, 5-Methylsulfanyl-thiophene-2-carboxylic acid (1-{4-[3-chloro-2-(5-methyl-[1,2,4]oxadiazol-3-yl)-indol-1-yl]-benzylcarbamoyl}-cyclopropyl)-amide]
[1]
  IC50: 20 to 100 nM
[2]
  Ki: < 20 nM

## Cc1nc(-c2c(Cl)c3ccccc3n2-c2ccc(CNC(=O)C3(NC(=O)C=Cc4ccco4)CC3)cc2)no1 [Example 171, 1-(3-Furan-2-yl-acryloylamino)-cyclopropanecarboxylic acid 4-[3-chloro-2-(5-methyl-[1,2,4]oxadiazol-3-yl)-indol-1-yl]-benzylamide]
[1]
  IC50: 20 to 100 nM
[2]
  Ki: < 20 nM

## Cc1nc(-c2c(Cl)c3ccccc3n2-c2ccc(CNC(=O)C3(NC(=O)c4scnc4C)CC3)cc2)no1 [Example 149, 4-Methyl-thiazole-5-carboxylic acid (1-{4-[3-chloro-2-(5-methyl-[1,2,4]oxadiazol-3-yl)-indol-1-yl]-benzylcarbamoyl}-cyclopropyl)-amide]
[1]
  IC50: 20 to 100 nM
[2]
  Ki: < 20 nM

## Cc1nc(-c2c(Cl)c3cc(Cl)ccc3n2-c2ccc(CNC(=O)C3(NC(=O)c4cccc(F)c4)CC3)cc2)no1 [Example 71, N-(1-{4-[3,5-Dichloro-2-(5-methyl-[1,2,4]oxadiazol-3-yl)-indol-1-yl]-benzylcarbamoyl}-cyclopropyl)-3-fluoro-benzamide]
[1]
  IC50: < 20 nM
[2]
  Ki: < 20 nM
